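Test compounds were applied to cells in 96-well plates for 48 hours at 5 doses. The concentration for 50% growth inhibition is given as GI50.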 Active and inactive are the calls of the source. No stated cut-off is given here; in the data, active = GI50 up to about 1.1 µM and inactive = higher.
Assays:
Test in all cases: NCI-60 cell line screen, 48 h
786-0 = tested on: 786-0
A498 = tested on: A498
A549 = tested on: A549
ACHN = tested on: ACHN
CAKI-1 = tested on: CAKI-1
CCRF-CEM = tested on: CCRF-CEM
COLO 205 = tested on: COLO 205
DLD-1 = tested on: DLD-1
DMS-114 = tested on: DMS-114
DMS-273 = tested on: DMS-273
EKVX = tested on: EKVX
HCT-116 = tested on: HCT-116
HCT-15 = tested on: HCT-15
HL-60 = tested on: HL-60
HOP-18 = tested on: HOP-18
HOP-62 = tested on: HOP-62
HOP-92 = tested on: HOP-92
HT-29 = tested on: HT-29
IGROV-1 = tested on: IGROV-1
K562 = tested on: K562
KM-20L2 = tested on: KM-20L2
KM12 = tested on: KM12
LOX IMVI = tested on: LOX IMVI
LXFL 529 = tested on: LXFL 529
M14 = tested on: M14
M19-MEL = tested on: M19-MEL
MOLT-4 = tested on: MOLT-4
Malme-3M = tested on: Malme-3M
NCI-H23 = tested on: NCI-H23
NCI-H460 = tested on: NCI-H460
NCI-H522 = tested on: NCI-H522
OVCAR-3 = tested on: OVCAR-3
OVCAR-4 = tested on: OVCAR-4
OVCAR-5 = tested on: OVCAR-5
OVCAR-8 = tested on: OVCAR-8
RPMI-8226 = tested on: RPMI-8226
RXF 393 = tested on: RXF 393
SF-268 = tested on: SF-268
SF-295 = tested on: SF-295
SF-539 = tested on: SF-539
SK-MEL-28 = tested on: SK-MEL-28
SK-MEL-2 = tested on: SK-MEL-2
SK-MEL-5 = tested on: SK-MEL-5
SK-OV-3 = tested on: SK-OV-3
SN12C = tested on: SN12C
SNB-19 = tested on: SNB-19
SNB-75 = tested on: SNB-75
SNB-78 = tested on: SNB-78
SW-620 = tested on: SW-620
TK-10 = tested on: TK-10
U-251 = tested on: U-251
UACC-257 = tested on: UACC-257
UACC-62 = tested on: UACC-62
UO-31 = tested on: UO-31
XF498 = tested on: XF498
HCC 2998 = tested on: HCC 2998
SR = tested on: SR
BT-549 = tested on: BT-549
DU-145 = tested on: DU-145
Hs-578T = tested on: Hs-578T
MCF7 = tested on: MCF7
MDA-MB-231 = tested on: MDA-MB-231
MDA-MB-435 = tested on: MDA-MB-435
MDA-N = tested on: MDA-N
NCI-H226 = tested on: NCI-H226
NCI/ADR-RES = tested on: NCI/ADR-RES
PC-3 = tested on: PC-3
RXF 631 = tested on: RXF 631
T47D = tested on: T47D

Measured: GI50

CC1OC(OC2C(CO)OC(O[C@H]3CC[C@@]4(C)C(=CC[C@H]5[C@@H]6C[C@@H]7O[C@]8(CC[C@@H](C)CN8)[C@@H](C)[C@@H]7[C@@]6(C)CC[C@@H]54)C3)C(O)C2O)C(O)C(O)C1O (some centres undefined)
> 100 µM: HCT-15
inactive: 786-0 > 100 µM | A498 > 100 µM | A549 > 100 µM | ACHN > 100 µM | CAKI-1 > 100 µM | CCRF-CEM > 100 µM | COLO 205 > 100 µM | DLD-1 55 µM | DMS-114 > 100 µM | DMS-273 > 100 µM | EKVX 76 µM | HCT-116 > 100 µM | HL-60 > 100 µM | HOP-18 43.3 µM | HOP-62 > 100 µM | HOP-92 31.7 µM | HT-29 > 100 µM | IGROV-1 > 100 µM | K562 > 100 µM | KM-20L2 28.9 µM | KM12 > 100 µM | LOX IMVI > 100 µM | LXFL 529 > 100 µM | M14 > 100 µM | M19-MEL > 100 µM | MOLT-4 > 100 µM | Malme-3M > 100 µM | NCI-H23 > 100 µM | NCI-H460 > 100 µM | NCI-H522 70.6 µM | OVCAR-3 > 100 µM | OVCAR-4 > 100 µM | OVCAR-5 > 100 µM | OVCAR-8 > 100 µM | RPMI-8226 > 100 µM | RXF 393 > 100 µM | SF-268 > 100 µM | SF-295 > 100 µM | SF-539 > 100 µM | SK-MEL-28 31.8 µM | SK-MEL-2 > 100 µM | SK-MEL-5 > 100 µM | SK-OV-3 > 100 µM | SN12C > 100 µM | SNB-19 > 100 µM | SNB-75 42.1 µM | SNB-78 > 100 µM | SW-620 > 100 µM | TK-10 > 100 µM | U-251 > 100 µM | UACC-257 > 100 µM | UACC-62 > 100 µM | UO-31 > 100 µM | XF498 > 100 µM

COc1cc(OC)c([C@@H]2OC(=O)C3C2C(=O)O[C@H]3c2cc(OC)c(OC)cc2OC)cc1OC (some centres undefined)
> 100 µM: HCT-15
inactive: 786-0 > 100 µM | A498 > 100 µM | A549 > 100 µM | ACHN > 100 µM | CAKI-1 > 100 µM | CCRF-CEM > 100 µM | COLO 205 > 100 µM | DLD-1 > 100 µM | DMS-114 72.4 µM | DMS-273 > 100 µM | EKVX > 100 µM | HCC 2998 > 100 µM | HCT-116 > 100 µM | HL-60 88.9 µM | HOP-18 > 100 µM | HOP-62 > 100 µM | HOP-92 > 10 µM | HT-29 > 100 µM | IGROV-1 > 10 µM | K562 > 100 µM | KM-20L2 > 100 µM | KM12 > 100 µM | LXFL 529 > 100 µM | M14 > 100 µM | M19-MEL 70.1 µM | MOLT-4 > 100 µM | NCI-H23 > 100 µM | NCI-H460 > 100 µM | OVCAR-3 > 100 µM | OVCAR-4 45.4 µM | OVCAR-8 > 100 µM | RPMI-8226 > 100 µM | RXF 393 > 100 µM | SF-295 > 100 µM | SF-539 > 100 µM | SK-MEL-28 > 100 µM | SK-MEL-2 > 100 µM | SK-OV-3 > 100 µM | SN12C > 100 µM | SNB-19 > 100 µM | SNB-75 > 100 µM | SNB-78 > 100 µM | SR 51.6 µM | SW-620 > 10 µM | U-251 > 100 µM | UACC-257 > 100 µM | UACC-62 > 100 µM | UO-31 > 100 µM | XF498 > 100 µM

C/C(=N\Nc1ccccc1)C(CN(C)C)C(c1ccccc1)c1c(O)c2ccccc2oc1=O (centres undefined)
inactive: 786-0 > 100 µM | A498 > 100 µM | A549 > 100 µM | ACHN > 100 µM | BT-549 > 100 µM | CAKI-1 > 100 µM | CCRF-CEM > 83.8 µM | COLO 205 > 68.9 µM | DMS-114 > 100 µM | DU-145 > 100 µM | EKVX > 100 µM | HCC 2998 > 100 µM | HCT-116 > 100 µM | HL-60 > 59.8 µM | HOP-62 > 100 µM | HOP-92 > 35.2 µM | HT-29 > 100 µM | Hs-578T > 100 µM | IGROV-1 > 100 µM | K562 > 100 µM | KM-20L2 > 100 µM | KM12 > 100 µM | LOX IMVI > 100 µM | LXFL 529 > 100 µM | M14 > 100 µM | M19-MEL > 100 µM | MCF7 > 100 µM | MDA-MB-231 > 100 µM | MDA-MB-435 > 100 µM | MDA-N > 100 µM | MOLT-4 42.1 µM | Malme-3M > 83 µM | NCI-H226 > 100 µM | NCI-H23 > 100 µM | NCI-H460 > 100 µM | NCI-H522 > 100 µM | NCI/ADR-RES > 100 µM | OVCAR-3 > 100 µM | OVCAR-4 > 100 µM | OVCAR-5 > 100 µM | OVCAR-8 > 100 µM | PC-3 > 100 µM | RPMI-8226 > 66.7 µM | RXF 393 > 100 µM | RXF 631 > 100 µM | SF-268 > 100 µM | SF-295 > 100 µM | SF-539 > 100 µM | SK-MEL-28 > 100 µM | SK-MEL-2 > 100 µM | SK-MEL-5 > 100 µM | SK-OV-3 > 100 µM | SN12C > 100 µM | SNB-19 > 100 µM | SNB-75 > 77.3 µM | SR 85.9 µM | SW-620 > 100 µM | T47D 89.3 µM | TK-10 > 100 µM | U-251 > 100 µM | UACC-257 > 100 µM | UACC-62 > 100 µM | UO-31 > 100 µM
> 100 µM: HCT-15

C[N+]1(C)C[C@@H](O)C[C@@H]1C(=O)[O-] [BETONICINE]
inactive: 786-0 > 100 µM | A498 > 100 µM | A549 > 100 µM | ACHN > 100 µM | CCRF-CEM > 100 µM | COLO 205 > 100 µM | DLD-1 > 100 µM | DMS-114 > 100 µM | DMS-273 > 100 µM | EKVX > 100 µM | HCC 2998 > 100 µM | HCT-116 > 100 µM | HL-60 > 100 µM | HOP-18 > 100 µM | HOP-62 > 100 µM | HOP-92 > 100 µM | HT-29 > 100 µM | IGROV-1 > 100 µM | K562 > 100 µM | KM-20L2 > 100 µM | KM12 > 100 µM | LOX IMVI > 100 µM | LXFL 529 > 100 µM | M14 > 100 µM | M19-MEL > 100 µM | MOLT-4 > 100 µM | Malme-3M > 100 µM | NCI-H226 > 100 µM | NCI-H23 > 100 µM | NCI-H460 > 100 µM | NCI-H522 > 100 µM | OVCAR-3 > 100 µM | OVCAR-4 > 100 µM | OVCAR-8 > 100 µM | RPMI-8226 > 100 µM | RXF 393 > 100 µM | SF-268 > 100 µM | SF-295 > 100 µM | SF-539 > 100 µM | SK-MEL-28 > 100 µM | SK-MEL-2 > 100 µM | SK-OV-3 > 100 µM | SN12C > 100 µM | SNB-19 > 100 µM | SNB-75 > 100 µM | SNB-78 > 100 µM | SR > 100 µM | SW-620 > 100 µM | TK-10 > 100 µM | U-251 > 100 µM | UACC-257 > 100 µM | UACC-62 > 100 µM | UO-31 > 100 µM | XF498 > 100 µM
> 100 µM: HCT-15

From ChEMBL document CHEMBL1201862, “PubChem BioAssay data set” (2004)
